Here are results for one compound from patent US5710153A, “Tetrazole compound” (Ono Phramaceutical Co., Ltd., priority 1995, dated 1998).

For this assay, the target named is T1, human ICE (Homo sapiens, UniProt P29466).
T1 sequence (P29466 120-297 limits assumed): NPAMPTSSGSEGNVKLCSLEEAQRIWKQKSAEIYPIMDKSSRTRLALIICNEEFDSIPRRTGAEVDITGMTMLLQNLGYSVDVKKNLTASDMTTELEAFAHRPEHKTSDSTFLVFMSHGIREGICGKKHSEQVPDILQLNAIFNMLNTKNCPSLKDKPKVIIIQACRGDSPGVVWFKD
T1 sequence (P29466 317-404 limits assumed): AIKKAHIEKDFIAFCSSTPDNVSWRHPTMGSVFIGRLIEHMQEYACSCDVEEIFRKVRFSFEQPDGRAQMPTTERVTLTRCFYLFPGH
Kind of assay: Assay for IL-1β converting enzyme. It counts as biochemical. As to conditions: human ICE solution, substrate Ac-Tyr-Val-Ala-Asp-MCA, 37° C., fluorescence. The method, then:
(1) Assay for IL-1β converting enzyme
The reaction mixture contains, for example, 20 mM of HEPES-NaOH pH7.4, 10 mM of KOH, 1.5 mM of MgCl2, 0.1 mM of EDTA and 10% glycerol. Various concentrations of test compounds (50 μl), human ICE solution (50 μl) and various concentrations of substrate (Ac-Tyr-VaI-Ala-Asp-MCA) were mixed and incubated at 37° C. Fluorescence intensity was measured at […].
In the aboved example method,
HEPES is 4-(2-Hydroxyethyl)-1-piperazineethane-sulfonic acid,
EDTA is Ethylenediamine tetraacetate, and
Ac-Tyr-Val-Ala-Asp-MCA is Acetyl-L-tyrosyl-L-valyl-L-alanyl-L-asparaginic acid 4-methyl-coumarinyl-7-amide.

Structures are written as SMILES.

With `CC(C)[C@H](NC(=O)CCc1ccccc1)C(=O)N[C@@H](C)C(=O)NC(CC(=O)O)C(=O)Cn1nnc(-c2c(Cl)cccc2Cl)n1` (stereo partly drawn) [Example 2(1), N-((N-(3-phenylpropionyl)-L-valyl)-L-alanyl)-3-amino-4-oxo-5-(5-(2,6-dichlorophenyl)tetrazol-2-yl)pentanoic acid], the IC50 (in general, the concentration that gives 50% inhibition) came to 0.03 µM.
